Converted amounts (≈) assume the structure as drawn. Like-named read-outs stand apart in the source and are kept apart here.
Assays:
[1] = system: hVISA Mu3; assay: MIC against clinical isolates of MRSA; type: cell-based; settings: Staphylococcus aureus; heteroresistant vancomycin intermediate S. aureus; read-out: MIC hVISA Mu3
[2] = system: Streptococcus pyogenes; assay: MIC, broth microdilution with Alamar Blue; type: cell-based; settings: for Selectivity S. pyogenes: IC50 (MCF10)/MIC (pathogen), both values in µM; for MIC: Streptococcus pyogenes
Method: (§1) Stock solutions of standard antibiotics and test compounds were made at 50 mM in DMSO. […] For susceptibility testing, 10 µL of glycerol stock was suspended in a 10 mL shake flask culture of chemically defined Isosensitest broth (Oxoid) supplemented with 2% w/v glucose. A sample of the shake flask culture was diluted to 1×10^6 cells/mL in media and added to 96-well test plates (100 µL per well) containing test compounds dispensed in DMSO (2 µL) using serial two-fold dilutions. After an incubation period (30°C) determined from the strain specific doubling time, a 0.03% w/v aqueous solution of resazurin (10 µL) was added and the plates were allowed to incubate; each well was then scored for dye reduction.

[3] = system: HA-MRSA; assay: MIC against clinical isolates of MRSA; type: cell-based; settings: Staphylococcus aureus, clinical isolate, read-out: MIC HA-MRSA
[4] = system: USA300 CA-MRSA; assay: MIC against clinical isolates of MRSA; type: cell-based, Staphylococcus aureus; settings: Staphylococcus aureus, clinical isolate, read-out: MIC USA300 CA-MRSA
[5] = system: MCF-10 cells; assay: Mammalian cell toxicity (Alamar Blue); type: cell-based; settings: Homo sapiens, MCF10; cytotoxicity, 4 h incubation; read-out: IC50 MCF-10
Method: Adherent cell lines were maintained in Eagle's Minimal Essential Media (Sigma-Aldrich, St. Louis, MO, USA) with 2 mM glutamine and Earle's Balanced Salt Solution (HyClone, Logan, UT, USA) adjusted to contain 1.5 g/L sodium bicarbonate, 0.1 mM non-essential amino acids, 1 mM sodium pyruvate and 10% fetal calf serum. Fetal calf serum used in these assays was lot matched throughout. […] Toxicity assays were conducted between passages 10–20. Target compound toxicity was measured by incubating the test compound with the cells for 4 h, washing the cells and finally treating the cells with Alamar Blue. After 12–24 h, the fluorescence of the reduced dye was measured. Fluorescence intensity as a function of test compound concentration was fit to the Fermi equation, using non-linear least squares regression analysis, to estimate IC50 values.

[6] = system: Staphylococcus aureus subsp. aureus ATCC 44300; assay: MIC and MBC determination (microdilution, plating on Isosensitest agar); type: cell-based; settings: ATCC44300
Source text: MBC was defined as the lowest concentration of inhibitor preventing colony growth on agar plates.

[7] = system: MRSA (S.aureus 13709); assay: MIC, broth microdilution with Alamar Blue; type: cell-based, Staphylococcus aureus; settings: for Selectivity MRSA: IC50 (MCF10)/MIC (pathogen), both values in µM; for MIC: Staphylococcus aureus, MRSA
Method: as §1

[8] = system: TMP-SMZ-resistant MRSA strain; assay: MIC against clinical isolates of MRSA; type: cell-based; settings: Staphylococcus aureus, clinical isolate, Table 4, read-out: MIC TMP-SMZ^R
[9] = system: MRSA strain containing the F98Y mutation; assay: MIC against MRSA strain containing the F98Y mutation; type: cell-based; settings: Staphylococcus aureus, read-out: MIC against MRSA strain containing the F98Y mutation
[10] = system: MRSA strain ATCC 43300; settings: selection at ten times the MIC value
Method: Selective plates were grown for 30 hours at 37°C. […] Direct colony PCR was used to isolate and amplify the dfrA gene from resistant strains using methods described in [34]. All PCR products were screened for point mutations in DHFR by high quality DNA sequencing (Genewiz). Primers used to detect the dfrA gene contained restriction enzyme cut sites for NdeI and XhoI in order to ligate PCR products into the pET41 vector for further validation with DNA sequencing with the T7 promoter sequencing primer. Mutation frequencies were calculated based on the sequencing information provided for each mutant colony.

[11] = system: HepG2 cells; assay: Mammalian cell toxicity (Alamar Blue); type: cell-based; settings: Homo sapiens, cytotoxicity, 4 h incubation
Method: Fetal calf serum used in these assays was lot matched throughout. All cultures were maintained under a humidified 5% CO2 atmosphere at 37°C, had media refreshed twice weekly and were subcultured by trypsinization and resuspension at a ratio of 1∶5 each week. Toxicity assays were conducted between passages 10–20. Target compound toxicity was measured by incubating the test compound with the cells for 4 h, washing the cells and finally treating the cells with Alamar Blue. After 12–24 h, the fluorescence of the reduced dye was measured. Fluorescence intensity as a function of test compound concentration was fit to the Fermi equation, using non-linear least squares regression analysis, to estimate IC50 values.

[12] = target: T1, Human DHFR (Homo sapiens, UniProt P00374); assay: DHFR enzyme inhibition assay (NADPH oxidation, 340 nm); type: biochemical; settings: human DHFR; average of at least three measurements; read-out: IC50 (nM) Human
T1 sequence (P00374 1-187): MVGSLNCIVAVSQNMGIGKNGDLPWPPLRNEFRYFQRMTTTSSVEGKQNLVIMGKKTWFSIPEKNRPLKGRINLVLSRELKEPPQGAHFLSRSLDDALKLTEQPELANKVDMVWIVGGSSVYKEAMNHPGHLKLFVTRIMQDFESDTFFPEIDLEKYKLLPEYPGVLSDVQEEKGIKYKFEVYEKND
Method: (§2) Enzyme inhibition assays were performed by monitoring the rate of NADPH oxidation by the DHFR enzyme at an absorbance of 340 nm over five minutes. Assays were performed in the presence of saturating concentrations of NADPH (100 µM) and initiated with dihydrofolate (1 mM). All assays were completed at 25°C in a buffer containing 20 mM TES pH 7.0, 50 mM KCl, 10 mM 2-mercaptoethanol, 0.5 mM EDTA and 1 mg/mL BSA. Inhibition was measured at least three times with inhibitor concentrations near the IC50 value and the average IC50 value is reported with a standard deviation.

[13] = target: S. pyogenes DHFR (Streptococcus pyogenes, UniProt Q9A091); assay: biochemical; type: biochemical; settings: for Selectivity (h/Sp): IC50 (human)/IC50 (pathogen)
Chain of S. pyogenes DHFR (Q9A091 entry or part of it): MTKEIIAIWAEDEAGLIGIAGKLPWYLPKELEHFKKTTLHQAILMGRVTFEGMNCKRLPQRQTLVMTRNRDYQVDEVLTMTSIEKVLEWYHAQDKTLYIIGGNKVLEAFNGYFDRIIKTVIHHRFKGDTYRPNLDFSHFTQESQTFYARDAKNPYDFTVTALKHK
Method: (§3) S. aureus DHFR was cloned, expressed and purified as previously described. Briefly, the DHFR gene was inserted into vector pET41 with a His8 tag for purification. The protein was expressed in E. coli BL21 (DE3) cells. […] The protein was concentrated to ∼5 mg/mL. S. pyogenes DHFR was cloned using PCR from genomic DNA and inserted in vector pET-41.
as §2

[14] = target: T2, S. aureus DHFR (Staphylococcus aureus, UniProt P0A017); assay: biochemical; type: biochemical; settings: for Selectivity (h/Sa): IC50 (human)/IC50 (pathogen)
T2 construct: the DHFR gene was inserted into vector pET41 with a His8 tag for purification; His8; made in house; host or cells: E. coli BL21 (DE3)
T2 sequence (P0A017 whole entry): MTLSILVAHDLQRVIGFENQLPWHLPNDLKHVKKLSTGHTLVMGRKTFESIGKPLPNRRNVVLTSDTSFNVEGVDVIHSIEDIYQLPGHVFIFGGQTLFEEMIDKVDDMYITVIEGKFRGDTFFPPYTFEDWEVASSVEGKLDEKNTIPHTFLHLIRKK
Method: as §3, §2

[15] = system: VISA Mu50; assay: MIC against clinical isolates of MRSA; type: cell-based; settings: Staphylococcus aureus, read-out: MIC VISA Mu50
[16] = system: USA100 HA-MRSA; assay: MIC against clinical isolates of MRSA; type: cell-based; settings: Staphylococcus aureus, clinical isolate, read-out: MIC USA100 HA-MRSA
[17] = 10% FCS, read-out: MIC S. pyogenes +FCS
[18] = 10% FCS, value in parentheses, read-out: MIC S. pyogenes +FCS
[19] = value in parentheses, read-out: MIC S. pyogenes
[20] = 10% fetal calf serum, read-out: MIC MRSA +FCS
[21] = 10% fetal calf serum, value in parentheses, read-out: MIC MRSA +FCS
[22] = value in parentheses, read-out: MIC MRSA
[23] = S. aureus DHFR, average of at least three measurements, read-out: IC50 (nM) Sa

Row | Structure (SMILES) | MIC [1] | Selectivity S. pyogenes [2] | MIC [2, 17] | MIC [2, 18] | MIC [2, 19] | MIC ([2]; read-out: MIC S. pyogenes) | MIC [3] | MIC ([4]; USA300) | MIC [4] | IC50 [5] | MBC [6] | MIC [7, 22] | MIC ([7]; read-out: MIC MRSA) | MIC [8] | IC50 [11] | IC50 [12] | MIC [15] | MIC ([16]; USA100) | MIC ([16]; first USA100 column) | MIC ([16]; third USA100 column) | further results
1 | COc1cc(-c2ccncc2)cc(C(C)C#Cc2c(C)nc(N)nc2N)c1 (centres unmarked) [Compound 24] | 0.045 µg/mL (≈ 0.125 µM) | 1,760 | 0.09 µg/mL | 0.25 µM | 0.125 µM | 0.04 µg/mL | 0.09 µg/mL (≈ 0.25 µM) | 0.09 µg/mL (≈ 0.25 µM) | 0.045 µg/mL (≈ 0.125 µM) | 220 µM | 0.078 µg/mL (≈ 0.217 µM) | 0.125 µM | 0.04 µg/mL | 0.045 µg/mL (≈ 0.125 µM) | 233 µM | 1500 ± 8 nM | 0.18 µg/mL (≈ 0.501 µM) | 0.045 µg/mL (≈ 0.125 µM) | 2.9 µg/mL (≈ 8.07 µM) | 0.09 µg/mL (≈ 0.25 µM) | MIC [6]: 0.078 µg/mL (≈ 0.217 µM); Selectivity MRSA [7]: 1,760; MIC [7, 20]: 0.09 µg/mL; MIC [7, 21]: 0.25 µM; MIC [9]: 2.5 µg/mL (≈ 6.96 µM); resistance frequency [10]: 3.9×10^−10; Selectivity (h/Sp) [13]: 9.4; Selectivity (h/Sa) [14]: 58; IC50 [14, 23]: 26 ± 2 nM
2 | CCc1nc(N)nc(N)c1C#CC(C)c1cc(OC)cc(-c2ccncc2)c1 (centres unmarked) [Compound 25] | 0.09 µg/mL (≈ 0.241 µM) | – | – | – | 0.032 µM | 0.012 µg/mL | 0.02 µg/mL (≈ 0.0536 µM) | 0.09 µg/mL (≈ 0.241 µM) | 0.045 µg/mL (≈ 0.12 µM) | 85 µM | 0.078 µg/mL (≈ 0.209 µM) | 0.5 µM | 0.09 µg/mL | 0.09 µg/mL (≈ 0.241 µM) | 171 µM | 1300 ± 11 nM | 0.09 µg/mL (≈ 0.241 µM) | 0.09 µg/mL (≈ 0.241 µM) | 2.9 µg/mL (≈ 7.77 µM) | 0.09 µg/mL (≈ 0.241 µM) | MIC [6]: 0.078 µg/mL (≈ 0.209 µM); IC50 [13]: 0.18 ± 0.019 µM; IC50 [14]: 19 ± 1 nM
3 | CCc1nc(N)nc(N)c1C#CCc1cc(-c2ccncc2)ccc1OC [Compound 26] | 0.04 µg/mL (≈ 0.111 µM) | 1,736 | 0.09 µg/mL | 0.25 µM | 0.125 µM | 0.04 µg/mL | 0.08 µg/mL (≈ 0.223 µM) | 0.08 µg/mL (≈ 0.223 µM) | 0.08 µg/mL (≈ 0.223 µM) | 217 µM | – | 0.064 µM | 0.02 µg/mL | 0.04 µg/mL (≈ 0.111 µM) | 199 µM | 330 ± 12 nM | 0.04 µg/mL (≈ 0.111 µM) | 0.08 µg/mL (≈ 0.223 µM) | 5.3 µg/mL (≈ 14.7 µM) | 0.04 µg/mL (≈ 0.111 µM) | Selectivity MRSA [7]: 3,391; MIC [7, 20]: 0.09 µg/mL; MIC [7, 21]: 0.25 µM; Selectivity (h/Sp) [13]: 17; Selectivity (h/Sa) [14]: 16; IC50 [14, 23]: 21 ± 1 nM
